Oligonucleotides are given in HELM: sugar(base)linkage, 5' to 3'; d 2'-deoxyribose, r ribose, m 2'-O-methylribose, p phosphate. ss, as = sense and antisense strand
Molecular target: UBE2N
Test: reporter assay of Huesken 2005
Conditions: siRNA
Also: test concentration or dose not given here.

With “RNA1{r(A)p.r(U)p.r(G)p.r(U)p.r(C)p.r(U)p.r(A)p.r(G)p.r(A)p.r(U)p.r(A)p.r(U)p.r(U)p.r(U)p.r(U)p.r(G)p.r(A)p.r(A)p.r(A)p.d(T)p.d(T)}|RNA2{r(U)p.r(U)p.r(U)p.r(C)p.r(A)p.r(A)p.r(A)p.r(A)p.r(U)p.r(A)p.r(U)p.r(C)p.r(U)p.r(A)p.r(G)p.r(A)p.r(C)p.r(A)p.r(U)p.d(A)p.d(T)}$$$RNA1{StrandType:ss}|RNA2{StrandType:as}$” as the substance, how does the normalised inhibition (eCFP-eYFP dual reporter) read?
The normalised inhibition (eCFP-eYFP dual reporter) was 75.9%.

Which normalised inhibition (eCFP-eYFP dual reporter) does the source give for “RNA1{r(A)p.r(U)p.r(G)p.r(U)p.r(G)p.r(G)p.r(U)p.r(C)p.r(A)p.r(U)p.r(U)p.r(G)p.r(C)p.r(U)p.r(G)p.r(G)p.r(C)p.r(C)p.r(C)p.d(T)p.d(T)}|RNA2{r(G)p.r(G)p.r(G)p.r(C)p.r(C)p.r(A)p.r(G)p.r(C)p.r(A)p.r(A)p.r(U)p.r(G)p.r(A)p.r(C)p.r(C)p.r(A)p.r(C)p.r(A)p.r(U)p.d(G)p.d(A)}$$$RNA1{StrandType:ss}|RNA2{StrandType:as}$” here?
The normalised inhibition (eCFP-eYFP dual reporter) was 47.1%.

For “RNA1{r(A)p.r(U)p.r(U)p.r(A)p.r(G)p.r(C)p.r(A)p.r(A)p.r(A)p.r(U)p.r(G)p.r(A)p.r(U)p.r(G)p.r(U)p.r(A)p.r(G)p.r(C)p.r(G)p.d(T)p.d(T)}|RNA2{r(C)p.r(G)p.r(C)p.r(U)p.r(A)p.r(C)p.r(A)p.r(U)p.r(C)p.r(A)p.r(U)p.r(U)p.r(U)p.r(G)p.r(C)p.r(U)p.r(A)p.r(A)p.r(U)p.d(G)p.d(G)}$$$RNA1{StrandType:ss}|RNA2{StrandType:as}$”, which normalised inhibition (eCFP-eYFP dual reporter) is on record?
The normalised inhibition (eCFP-eYFP dual reporter) was 34.2%.

How did the normalised inhibition (eCFP-eYFP dual reporter) turn out when “RNA1{r(A)p.r(U)p.r(U)p.r(U)p.r(A)p.r(U)p.r(C)p.r(A)p.r(U)p.r(C)p.r(C)p.r(U)p.r(A)p.r(A)p.r(U)p.r(G)p.r(U)p.r(A)p.r(G)p.d(T)p.d(T)}|RNA2{r(C)p.r(U)p.r(A)p.r(C)p.r(A)p.r(U)p.r(U)p.r(A)p.r(G)p.r(G)p.r(A)p.r(U)p.r(G)p.r(A)p.r(U)p.r(A)p.r(A)p.r(A)p.r(U)p.d(T)p.d(T)}$$$RNA1{StrandType:ss}|RNA2{StrandType:as}$” was run?
Its normalised inhibition (eCFP-eYFP dual reporter) is 49.2%.

Which normalised inhibition (eCFP-eYFP dual reporter) does the source give for “RNA1{r(A)p.r(U)p.r(U)p.r(U)p.r(U)p.r(C)p.r(A)p.r(U)p.r(G)p.r(U)p.r(G)p.r(G)p.r(U)p.r(C)p.r(A)p.r(U)p.r(U)p.r(G)p.r(C)p.d(T)p.d(T)}|RNA2{r(G)p.r(C)p.r(A)p.r(A)p.r(U)p.r(G)p.r(A)p.r(C)p.r(C)p.r(A)p.r(C)p.r(A)p.r(U)p.r(G)p.r(A)p.r(A)p.r(A)p.r(A)p.r(U)p.d(A)p.d(A)}$$$RNA1{StrandType:ss}|RNA2{StrandType:as}$” here?
The normalised inhibition (eCFP-eYFP dual reporter) was 47.1%.

With “RNA1{r(C)p.r(A)p.r(A)p.r(A)p.r(U)p.r(G)p.r(A)p.r(U)p.r(G)p.r(U)p.r(A)p.r(G)p.r(C)p.r(G)p.r(G)p.r(A)p.r(G)p.r(C)p.r(A)p.d(T)p.d(T)}|RNA2{r(U)p.r(G)p.r(C)p.r(U)p.r(C)p.r(C)p.r(G)p.r(C)p.r(U)p.r(A)p.r(C)p.r(A)p.r(U)p.r(C)p.r(A)p.r(U)p.r(U)p.r(U)p.r(G)p.d(C)p.d(T)}$$$RNA1{StrandType:ss}|RNA2{StrandType:as}$” as the substance, how does the normalised inhibition (eCFP-eYFP dual reporter) read?
The normalised inhibition (eCFP-eYFP dual reporter) was 64.2%.

How did the normalised inhibition (eCFP-eYFP dual reporter) turn out when “RNA1{r(C)p.r(A)p.r(A)p.r(C)p.r(G)p.r(A)p.r(A)p.r(G)p.r(C)p.r(C)p.r(C)p.r(A)p.r(A)p.r(G)p.r(C)p.r(C)p.r(A)p.r(U)p.r(A)p.d(T)p.d(T)}|RNA2{r(U)p.r(A)p.r(U)p.r(G)p.r(G)p.r(C)p.r(U)p.r(U)p.r(G)p.r(G)p.r(G)p.r(C)p.r(U)p.r(U)p.r(C)p.r(G)p.r(U)p.r(U)p.r(G)p.d(G)p.d(T)}$$$RNA1{StrandType:ss}|RNA2{StrandType:as}$” was run?
Its normalised inhibition (eCFP-eYFP dual reporter) is 94%.

How did the normalised inhibition (eCFP-eYFP dual reporter) turn out when “RNA1{r(C)p.r(A)p.r(A)p.r(C)p.r(G)p.r(C)p.r(C)p.r(C)p.r(G)p.r(U)p.r(U)p.r(A)p.r(U)p.r(U)p.r(U)p.r(U)p.r(C)p.r(A)p.r(U)p.d(T)p.d(T)}|RNA2{r(A)p.r(U)p.r(G)p.r(A)p.r(A)p.r(A)p.r(A)p.r(U)p.r(A)p.r(A)p.r(C)p.r(G)p.r(G)p.r(G)p.r(C)p.r(G)p.r(U)p.r(U)p.r(G)p.d(C)p.d(T)}$$$RNA1{StrandType:ss}|RNA2{StrandType:as}$” was run?
Its normalised inhibition (eCFP-eYFP dual reporter) is 87.1%.

With “RNA1{r(C)p.r(A)p.r(G)p.r(U)p.r(G)p.r(G)p.r(A)p.r(A)p.r(G)p.r(A)p.r(C)p.r(C)p.r(A)p.r(A)p.r(C)p.r(G)p.r(A)p.r(A)p.r(G)p.d(T)p.d(T)}|RNA2{r(C)p.r(U)p.r(U)p.r(C)p.r(G)p.r(U)p.r(U)p.r(G)p.r(G)p.r(U)p.r(C)p.r(U)p.r(U)p.r(C)p.r(C)p.r(A)p.r(C)p.r(U)p.r(G)p.d(C)p.d(T)}$$$RNA1{StrandType:ss}|RNA2{StrandType:as}$” as the substance, how does the normalised inhibition (eCFP-eYFP dual reporter) read?
The normalised inhibition (eCFP-eYFP dual reporter) was 78%.

For “RNA1{r(C)p.r(A)p.r(G)p.r(U)p.r(U)p.r(C)p.r(C)p.r(U)p.r(G)p.r(G)p.r(C)p.r(A)p.r(U)p.r(C)p.r(A)p.r(A)p.r(A)p.r(G)p.r(C)p.d(T)p.d(T)}|RNA2{r(G)p.r(C)p.r(U)p.r(U)p.r(U)p.r(G)p.r(A)p.r(U)p.r(G)p.r(C)p.r(C)p.r(A)p.r(G)p.r(G)p.r(A)p.r(A)p.r(C)p.r(U)p.r(G)p.d(G)p.d(T)}$$$RNA1{StrandType:ss}|RNA2{StrandType:as}$”, which normalised inhibition (eCFP-eYFP dual reporter) is on record?
Its normalised inhibition (eCFP-eYFP dual reporter) is 61.4%.

How did the normalised inhibition (eCFP-eYFP dual reporter) turn out when “RNA1{r(C)p.r(A)p.r(U)p.r(A)p.r(G)p.r(A)p.r(A)p.r(A)p.r(C)p.r(A)p.r(G)p.r(C)p.r(U)p.r(A)p.r(G)p.r(A)p.r(G)p.r(C)p.r(A)p.d(T)p.d(T)}|RNA2{r(U)p.r(G)p.r(C)p.r(U)p.r(C)p.r(U)p.r(A)p.r(G)p.r(C)p.r(U)p.r(G)p.r(U)p.r(U)p.r(U)p.r(C)p.r(U)p.r(A)p.r(U)p.r(G)p.d(G)p.d(C)}$$$RNA1{StrandType:ss}|RNA2{StrandType:as}$” was run?
The normalised inhibition (eCFP-eYFP dual reporter) was 95.3%.

For “RNA1{r(C)p.r(A)p.r(U)p.r(C)p.r(A)p.r(A)p.r(A)p.r(G)p.r(C)p.r(C)p.r(G)p.r(A)p.r(A)p.r(C)p.r(C)p.r(A)p.r(G)p.r(A)p.r(U)p.d(T)p.d(T)}|RNA2{r(A)p.r(U)p.r(C)p.r(U)p.r(G)p.r(G)p.r(U)p.r(U)p.r(C)p.r(G)p.r(G)p.r(C)p.r(U)p.r(U)p.r(U)p.r(G)p.r(A)p.r(U)p.r(G)p.d(C)p.d(C)}$$$RNA1{StrandType:ss}|RNA2{StrandType:as}$”, which normalised inhibition (eCFP-eYFP dual reporter) is on record?
Its normalised inhibition (eCFP-eYFP dual reporter) is 84.7%.

For “RNA1{r(C)p.r(A)p.r(U)p.r(U)p.r(A)p.r(G)p.r(C)p.r(A)p.r(A)p.r(A)p.r(U)p.r(G)p.r(A)p.r(U)p.r(G)p.r(U)p.r(A)p.r(G)p.r(C)p.d(T)p.d(T)}|RNA2{r(G)p.r(C)p.r(U)p.r(A)p.r(C)p.r(A)p.r(U)p.r(C)p.r(A)p.r(U)p.r(U)p.r(U)p.r(G)p.r(C)p.r(U)p.r(A)p.r(A)p.r(U)p.r(G)p.d(G)p.d(A)}$$$RNA1{StrandType:ss}|RNA2{StrandType:as}$”, which normalised inhibition (eCFP-eYFP dual reporter) is on record?
Its normalised inhibition (eCFP-eYFP dual reporter) is 30.2%.

With “RNA1{r(C)p.r(C)p.r(A)p.r(G)p.r(A)p.r(U)p.r(G)p.r(A)p.r(G)p.r(A)p.r(G)p.r(C)p.r(A)p.r(A)p.r(C)p.r(G)p.r(C)p.r(C)p.r(C)p.d(T)p.d(T)}|RNA2{r(G)p.r(G)p.r(G)p.r(C)p.r(G)p.r(U)p.r(U)p.r(G)p.r(C)p.r(U)p.r(C)p.r(U)p.r(C)p.r(A)p.r(U)p.r(C)p.r(U)p.r(G)p.r(G)p.d(T)p.d(T)}$$$RNA1{StrandType:ss}|RNA2{StrandType:as}$” as the substance, how does the normalised inhibition (eCFP-eYFP dual reporter) read?
The normalised inhibition (eCFP-eYFP dual reporter) was 65.8%.

Which normalised inhibition (eCFP-eYFP dual reporter) does the source give for “RNA1{r(C)p.r(C)p.r(A)p.r(U)p.r(U)p.r(A)p.r(G)p.r(C)p.r(A)p.r(A)p.r(A)p.r(U)p.r(G)p.r(A)p.r(U)p.r(G)p.r(U)p.r(A)p.r(G)p.d(T)p.d(T)}|RNA2{r(C)p.r(U)p.r(A)p.r(C)p.r(A)p.r(U)p.r(C)p.r(A)p.r(U)p.r(U)p.r(U)p.r(G)p.r(C)p.r(U)p.r(A)p.r(A)p.r(U)p.r(G)p.r(G)p.d(A)p.d(T)}$$$RNA1{StrandType:ss}|RNA2{StrandType:as}$” here?
Its normalised inhibition (eCFP-eYFP dual reporter) is 77.9%.

How did the normalised inhibition (eCFP-eYFP dual reporter) turn out when “RNA1{r(C)p.r(C)p.r(C)p.r(A)p.r(A)p.r(G)p.r(C)p.r(C)p.r(A)p.r(U)p.r(A)p.r(G)p.r(A)p.r(A)p.r(A)p.r(C)p.r(A)p.r(G)p.r(C)p.d(T)p.d(T)}|RNA2{r(G)p.r(C)p.r(U)p.r(G)p.r(U)p.r(U)p.r(U)p.r(C)p.r(U)p.r(A)p.r(U)p.r(G)p.r(G)p.r(C)p.r(U)p.r(U)p.r(G)p.r(G)p.r(G)p.d(C)p.d(T)}$$$RNA1{StrandType:ss}|RNA2{StrandType:as}$” was run?
The normalised inhibition (eCFP-eYFP dual reporter) was 60.2%.

Which normalised inhibition (eCFP-eYFP dual reporter) does the source give for “RNA1{r(C)p.r(C)p.r(U)p.r(A)p.r(A)p.r(U)p.r(G)p.r(U)p.r(A)p.r(G)p.r(A)p.r(C)p.r(A)p.r(A)p.r(G)p.r(U)p.r(U)p.r(G)p.r(G)p.d(T)p.d(T)}|RNA2{r(C)p.r(C)p.r(A)p.r(A)p.r(C)p.r(U)p.r(U)p.r(G)p.r(U)p.r(C)p.r(U)p.r(A)p.r(C)p.r(A)p.r(U)p.r(U)p.r(A)p.r(G)p.r(G)p.d(A)p.d(T)}$$$RNA1{StrandType:ss}|RNA2{StrandType:as}$” here?
Its normalised inhibition (eCFP-eYFP dual reporter) is 69.4%.

“RNA1{r(C)p.r(G)p.r(A)p.r(A)p.r(G)p.r(C)p.r(C)p.r(C)p.r(A)p.r(A)p.r(G)p.r(C)p.r(C)p.r(A)p.r(U)p.r(A)p.r(G)p.r(A)p.r(A)p.d(T)p.d(T)}|RNA2{r(U)p.r(U)p.r(C)p.r(U)p.r(A)p.r(U)p.r(G)p.r(G)p.r(C)p.r(U)p.r(U)p.r(G)p.r(G)p.r(G)p.r(C)p.r(U)p.r(U)p.r(C)p.r(G)p.d(T)p.d(T)}$$$RNA1{StrandType:ss}|RNA2{StrandType:as}$” was tested. Which normalised inhibition (eCFP-eYFP dual reporter) did it give?
Its normalised inhibition (eCFP-eYFP dual reporter) is 84.1%.

“RNA1{r(C)p.r(G)p.r(U)p.r(U)p.r(U)p.r(C)p.r(A)p.r(U)p.r(G)p.r(A)p.r(C)p.r(C)p.r(A)p.r(A)p.r(A)p.r(A)p.r(U)p.r(U)p.r(U)p.d(T)p.d(T)}|RNA2{r(A)p.r(A)p.r(A)p.r(U)p.r(U)p.r(U)p.r(U)p.r(G)p.r(G)p.r(U)p.r(C)p.r(A)p.r(U)p.r(G)p.r(A)p.r(A)p.r(A)p.r(C)p.r(G)p.d(T)p.d(A)}$$$RNA1{StrandType:ss}|RNA2{StrandType:as}$” was tested. Which normalised inhibition (eCFP-eYFP dual reporter) did it give?
Its normalised inhibition (eCFP-eYFP dual reporter) is 100%.

With “RNA1{r(C)p.r(U)p.r(A)p.r(A)p.r(A)p.r(G)p.r(U)p.r(A)p.r(C)p.r(G)p.r(U)p.r(U)p.r(U)p.r(C)p.r(A)p.r(U)p.r(G)p.r(A)p.r(C)p.d(T)p.d(T)}|RNA2{r(G)p.r(U)p.r(C)p.r(A)p.r(U)p.r(G)p.r(A)p.r(A)p.r(A)p.r(C)p.r(G)p.r(U)p.r(A)p.r(C)p.r(U)p.r(U)p.r(U)p.r(A)p.r(G)p.d(G)p.d(G)}$$$RNA1{StrandType:ss}|RNA2{StrandType:as}$” as the substance, how does the normalised inhibition (eCFP-eYFP dual reporter) read?
The normalised inhibition (eCFP-eYFP dual reporter) was 79.5%.

From the OligoGym collection
